# Reference: ChEMBL document CHEMBL4725373, “Introduction of Scaffold Nitrogen Atoms Renders Inhibitors of the Malarial l-Lactate Transporter, PfFNT, Effective against the Gly107Ser Resistance Mutation” (J Med Chem, 2020)
# Active and inactive are the calls of the source. The rule behind the calls is not given here.
# Columns and labels:
# [1] = (§1) Inhibition of Plasmodium falciparum FNT G107S mutant expressed in Saccharomyces cerevisiae W303-1A del-jen1 ady2-del (MATa, can1-100, ade2-loc, his3-11-15, leu2-3,-112, trp1-1-1, ura3-1, jen1::kanMX4, ady2::hphMX4) assessed as reduction in [1-14C]-L-lactate uptake incubated for 10 to 15 mins followed by [1-14C]-L-lactate addition and measured after 120 secs by liquid scintillation counting method
# [2] = as §1, with “FNT” for “FNT G107S mutant”, “30” for “120”
# Plasmodium falciparum [3] = assay: Antiplasmodial activity against Plasmodium falciparum 3D7 assessed as reduction in parasitemia incubated for 48 hrs supplemented with fresh medium containing compound at 24 hrs by LSR II FACS method; format: functional, organism-based
# [4] = as §1, with “20” for “10 to 15”, “addition” for “addition and measured after 120 secs”
# [5] = as §1, with “FNT” for “FNT G107S mutant”, “20” for “10 to 15”, “addition” for “addition and measured after 120 secs”
# Plasmodium falciparum [6] = assay: Antiplasmodial activity against Plasmodium falciparum 3D7 assessed as reduction in parasitemia after 24 hrs by LSR II FACS method; format: functional, organism-based; settings: 3D7, 24 h
# Plasmodium falciparum [7] = assay: Antiplasmodial activity against Plasmodium falciparum 3D7 assessed as reduction in parasite regrowth at 0.75 uM incubated for 14 days followed by compound washout and measured after 30 days; format: functional, organism-based; settings: time 14.0 day
# Plasmodium falciparum [8] = assay: Antiplasmodial activity against Plasmodium falciparum 3D7 assessed as reduction in parasite regrowth at 0.45 uM incubated for 14 days followed by compound washout and measured after 7 days; format: functional, organism-based; settings: time 14.0 day
Compound,IC50 [1] [µM],IC50 [2] [µM],further results
CC(C)(O)CC(=O)/C=C(\O)C(F)(F)C(F)(F)F,490,1.1,
O=C(/C=C(\O)C(F)(F)C(F)(F)F)c1ccc(Cl)cn1,0.51,0.23,EC50 (Plasmodium falciparum [3]): 14 µM
O=C(/C=C(\O)C(F)(F)C(F)(F)F)c1cc2ccccc2o1,17,0.19,
COc1ccc(C(=O)/C=C(\O)C(F)(F)C(F)(F)F)cc1,,,IC50 [4]: 2.6 µM; IC50 [5]: 0.14 µM; EC50 (Plasmodium falciparum [6]): 3.4 µM
O=C(/C=C(\O)C(F)(F)C(F)(F)F)c1cccnn1,3.8,0.86,
CCCCC(F)(F)/C(O)=C/C(=O)c1cccnc1,24,0.36,EC50 (Plasmodium falciparum [3]): 20.1 µM
COc1ccc(CC(=O)/C=C(\O)C(F)(F)C(F)(F)F)cc1,69,1.9,
O=C(/C=C(\O)C(F)(F)C(F)(F)F)Nc1ccccc1,378,18,
O=C(/C=C(\O)C(F)(F)C(F)(F)F)/C=C/c1ccccc1,26,0.29,
O=C(/C=C(\O)C(F)(F)C(F)(F)F)c1cccnc1,0.63,0.11,Activity (Plasmodium falciparum [7]): Active; EC50 (Plasmodium falciparum [3]): 0.24 µM
O=C(/C=C(\O)C(F)(F)C(F)(F)F)c1ccncc1,22,0.15,
COc1ccc(C(=O)/C=C(\O)C(F)(F)C(F)(F)F)cn1,0.26,0.11,EC50 (Plasmodium falciparum [3]): 3.88 µM
O=C(/C=C(\O)C(F)(F)C(F)(F)F)c1ccccn1,0.58,0.15,EC50 (Plasmodium falciparum [3]): 13.5 µM
O=C(/C=C(\O)C(F)(F)CO)c1cccnc1,,5.5,
O=C(/C=C(\O)C(F)(F)C(F)(F)F)c1cnccn1,1.2,0.46,
O=C(/C=C(\O)C(F)(F)C(F)(F)F)c1cc[nH]c1,13,0.2,
COc1ccc(CCC(=O)/C=C(\O)C(F)(F)C(F)(F)F)cc1,6.3,0.19,
Cc1[nH]nc(C(F)(F)F)c1Cc1sc2c(c1C(=O)N1C[C@](C)(O)CO1)c(=O)n(C)c(=O)n2C(C)C,,,Activity (Plasmodium falciparum [3]): inactive
COc1ccc(C(=O)/C=C(\O)C(F)(F)C(F)(F)F)c(O)c1,,,Activity (Plasmodium falciparum [8]): inactive; IC50 [4]: 20 µM; IC50 [5]: 0.17 µM; EC50 (Plasmodium falciparum [6]): 0.14 µM
Cn1ccc(C(=O)/C=C(\O)C(F)(F)C(F)(F)F)c1,14,0.13,
Cc1ccc(C(=O)/C=C(\O)C(F)(F)C(F)(F)F)cn1,1.7,0.15,
O=C(/C=C(\O)C(F)(F)C(F)(F)F)c1cnc2ccccc2c1,96,0.24,
O=C(/C=C(\O)C(F)(F)C(F)(F)F)c1ccc[nH]1,12,0.16,
